Values joined by “and” are separate entries in the source; they are usually repeats but may differ in a detail not shown here. Identical values can stand only once. Like-named read-outs stand apart in the source and are kept apart here.
Assays:
[1] = test system: uropathogenic E. coli strain UTI89; assay: Hemagglutination inhibition assay, guinea pig erythrocytes, E. coli strain UTI89; type: cell-based; conditions: Escherichia coli, read-out: MIC of haemagglutination
Procedure: (§1) Interaction of E. coli FimH adhesins with the glycocalyx of guinea pig erythrocytes forms a crosslinked network in the wells. Glycoconjugates, added in a 2-fold dilution series, prevent the agglutination reaction. The inhibition titer is defined as the lowest concentration of the glycoconjugate at which hemagglutination is still inhibited. Several strains of E. coli were grown statically overnight in LB at 37° C., washed three times in ice-cold phosphate-buffered saline, and redissolved. A 2-fold dilution of glycoconjugates with a starting concentration of 1 mM was prepared in 25 μL of PBS with 10% of DMSO. Importantly, the pipet tip was changed at every dilution step to avoid carry-over. Next, the bacterial solution (25 μL) was added to the 2-fold dilution series of the compound. Finally, 50 μL of guinea pig red blood cells, washed and diluted in the buffer to 5% of the blood volume, was added to reach 100 μL. The plates were left on ice for one night before read-out.
Inhibition of E. coli Strain UTI89 Isolated from Patient with Urinary Tract Infection.
(§2) The anti-adhesive capacity of the inhibitors was evaluated against ten E. coli strains isolated from CD patients, urinary tract infections, and hip prosthesis infections.

[2] = Faeces concentrations and recovery after IV and PO administration to rats; type: in vivo, Sprague Dawley rats; conditions: 0-24 h; for dose excreted: Sprague Dawley, rat, faeces
Procedure: Plasma and faeces concentrations after administration of Compound 1b and for compound 13 of WO 2014/016361 at 1 mg/kg by intravenous route and 10 mg/kg by oral route to Sprague Dawley rats Blank rat faeces are homogenized with 3 volumes of UHQ water until obtention of a paste. Then 100 μL of the homogenate are spiked with the molecules and precipitated with 300 μL of acetonitrile. The concentration ranges tested are: • 0.5 ng/mL to 1000 ng/mL for plasma, • 4 to 2000 ng/g for faeces, corresponding to 1 to 500 ng/mL of faeces homogenate. 3. In-Life Part After administration, the animals are placed in individual metabolic cages in order to collect faeces samples during 24 hours. Faeces samples are collected over the 24 hours of the experiment. They are precisely weighed and 3 volumes of UHQ water are added. The mixture is homogeneized until obtention of a paste. Then 100 μL of the homogenate are taken and extracted with 300 μL of Acetonitrile. Analysis is performed using LC-MS/MS determination according to previous analytical test results.

[3] = Plasma concentrations and pharmacokinetics after IV and PO administration to rats; type: in vivo, Sprague Dawley rats; conditions: for % AUCextra / AUC(0-inf) / AUC(0-t) / Cmax / Tmax: DMSO, based on mean data
Procedure: Plasma and faeces concentrations after administration of Compound 1b and for compound 13 of WO 2014/016361 at 1 mg/kg by intravenous route and 10 mg/kg by oral route to Sprague Dawley rats
At least 8 point calibration standards are run using standard conditions which consist to LC-MS/MS system with C18 column after precipitation of proteins with acetonitrile before the start of the analytical test.
For the plasma, 100 μL of blank rat plasma are directly spiked with the compounds before being precipitate with 300 μL of acetonitrile.
The concentration ranges tested are: • 0.5 ng/mL to 1000 ng/mL for plasma, • 4 to 2000 ng/g for faeces, corresponding to 1 to 500 ng/mL of faeces homogenate. 3. In-Life Part
12 male Sprague Dawley rats around 6-7 week old are used.
At prescribed times, blood is collected. Animals are briefly anaesthetised with Isoflurane® using an anaesthetic system (Équipement Vétérinaire Minerve) during blood samplings.
Blood samples are centrifuged at 2500 rpm at +4° C. (between 0 and 9° C.), the plasma is removed and placed into labelled polypropylene tubes. Individual plasma samples are stored frozen at −20° C. (target temperature) until analysis.
100 μL of the plasma sample are taken and 300 μL of acetonitrile are added. After protein precipitation, analysis is performed using LC-MS/MS determination according to previous analytical test results.
Concentrations of the samples are calculated directly from chromatograms after automatic integration by Analyst® 1.5.1 and expressed as ng/mL.
Mean plasma concentrations are calculated (when calculable, i.e. n≥2) using individual concentration and are expressed with the corresponding standard deviation value and variation coefficient (when calculable, i.e. n≥3), with
[formula] The individual plasma concentrations are tabulated for each rat and scheduled sampling time. Concentrations below the LLOQ are indicated by BLQ. All BLQ concentrations are substituted by zero for calculation of the descriptive statistics of the concentrations. 5. Results Estimation of pharmacokinetics parameters is performed using Kinetica® (Version 4.3—Thermo Electron Corporation—Philadelphia—USA). It was performed by using a one-compartment model approach, which considers the body as a single compartment in which the concentration is homogeneous. The following parameters are estimated: Cmax (ng/mL): maximal plasma concentration Tmax (h): first time to reach Cmax AUCt (ng/mL*h): area under the plasma concentration-time curve from administration up to the last quantifiable concentration at time t
[formula] “BLQ” stands for “Below the Limit of Quantification” ([…] for plasma). Compound 1b

LF82 = assay: Hemagglutination inhibition assay, guinea pig erythrocytes, E. coli strain LF82; type: cell-based; conditions: Escherichia coli, read-out: MIC of haemagglutination
Procedure: as §1, §2

[4] = IV 1 mg/kg, individual rats IV1-IV3, 1 mg/kg
[5] = PO 10 mg/kg, individual rats PO4-PO6, 10 mg/kg
[6] = male, Sprague Dawley, rat, plasma, IV 1 mg/kg
[7] = male, Sprague Dawley, rat, plasma, PO 10 mg/kg

With `Cc1nc(-c2cnccn2)sc1C(=O)c1cnc(C[C@H]2O[C@H](CO)[C@@H](O)[C@H](O)[C@@H]2O)s1` [Compound 1b, 5-(4-methyl-2-(pyrazin-2-yl)thiazole-5-carbonyl) 2-((-α-D-mannopyranos-1-yl)methyl)thiazole] the MIC [1] was 6 µM, the Faeces concentration [2, 4] was 3557 ng/g and 6433 ng/g and 2274 ng/g and the “Faeces concentration (homogenate)” value [2, 4] was 889 ng/mL and 1608 ng/mL and 569 ng/mL. For the same compound, the Recovery in faeces [2, 4] was 9.2% and 6.8%, the “Total amount of compound in faeces” value [2, 4] was 25318 ng and 22175 ng and 19840 ng and the “Faeces concentration (homogenate), mean” value ([2]; IV 1 mg/kg, mean of 3 rats) was 1022 ng/mL. The “Faeces concentration, mean” value ([2]; IV 1 mg/kg, mean of 3 rats) was 4088 ng/g, the “Total amount of compound in faeces, mean” value ([2]; IV 1 mg/kg, mean of 3 rats) was 22445 ng and the Faeces concentration [2, 5] was 146214 ng/g and 115495 ng/g and 146982 ng/g. The “Faeces concentration (homogenate)” value [2, 5] was 36553 ng/mL and 28874 ng/mL and 36745 ng/mL, the Recovery in faeces [2, 5] was 41.6% and 45.1% and the “Total amount of compound in faeces” value [2, 5] was 1335427 ng and 1081683 ng and 1171915 ng. For the same compound, the “Faeces concentration (homogenate), mean” value ([2]; PO 10 mg/kg, mean of 3 rats) was 34058 ng/mL, the “Faeces concentration, mean” value ([2]; PO 10 mg/kg, mean of 3 rats) was 136230 ng/g and the “Total amount of compound in faeces, mean” value ([2]; PO 10 mg/kg, mean of 3 rats) was 1196341 ng. It also gave a dose excreted ([2]; iv, 1 mg/kg, IV 1 mg/kg, individual rats IV1-IV3, read-out: Recovery in faeces) of 10.5%, a dose excreted ([2]; iv, 1 mg/kg, IV 1 mg/kg, mean of 3 rats, read-out: Recovery in faeces, mean) of 8.9% and a dose excreted ([2]; po, 10 mg/kg, PO 10 mg/kg, individual rats PO4-PO6, read-out: Recovery in faeces) of 55.6%. For the same compound, the dose excreted ([2]; po, 10 mg/kg, PO 10 mg/kg, mean of 3 rats, read-out: Recovery in faeces, mean (quantity found in faeces out of the administered quantity)) was 47.4%, the Plasma concentration ([3]; IV 1 mg/kg, 0.083 h, individual rats IV1-IV3, 1 mg/kg) was 470.2 ng/mL and 908.7 ng/mL and the Plasma concentration ([3]; IV 1 mg/kg, 0.5 h, individual rats IV1-IV3, 1 mg/kg) was 108.2 ng/mL and 66.5 ng/mL. For the same compound, the Plasma concentration ([3]; IV 1 mg/kg, 2 h, individual rats IV1-IV3, 1 mg/kg) was “BLQ”, the Plasma concentration ([3]; IV 1 mg/kg, 6 h, individual rats IV1-IV3) was “BLQ” and the Plasma concentration ([3]; IV 1 mg/kg, 24 h, individual rats IV1-IV3) was “BLQ”. The “% AUCextra” value ([3]; IV 1 mg/kg) was 0.35%, the Plasma concentration ([3]; PO 10 mg/kg, 0.5 h, individual rats PO4-PO6, 10 mg/kg) was 8.1 ng/mL and 6.5 ng/mL and the Plasma concentration ([3]; PO 10 mg/kg, 1 h, individual rats PO4-PO6, 10 mg/kg) was 6.5 ng/mL and BLQ. For the same compound, the Plasma concentration ([3]; PO 10 mg/kg, 2 h, individual rats PO4-PO6, 10 mg/kg) was “BLQ and 5.2 ng/mL”, the Plasma concentration ([3]; PO 10 mg/kg, 6 h, individual rats PO4-PO6) was “BLQ” and the Plasma concentration ([3]; PO 10 mg/kg, 24 h, individual rats PO4-PO6) was “BLQ”. The “% AUCextra” value ([3]; PO 10 mg/kg) was 53.8%, the concentration at 0.083 h ([3]; male, Sprague Dawley, rat, plasma, iv, 1 mg/kg, IV 1 mg/kg, 0.083 h, individual rats IV1-IV3, read-out: Plasma concentration) was 573 ng/mL and the concentration at 0.083 h ([3]; male, Sprague Dawley, rat, plasma, iv, 1 mg/kg, IV 1 mg/kg, 0.083 h, mean of 3 rats (BLQ = 0), read-out: Plasma concentration, mean) was 650 ng/mL. The concentration at 0.5 h ([3]; male, Sprague Dawley, rat, plasma, iv, 1 mg/kg, IV 1 mg/kg, 0.5 h, individual rats IV1-IV3, read-out: Plasma concentration) was 59.6 ng/mL, the concentration at 0.5 h ([3]; male, Sprague Dawley, rat, plasma, iv, 1 mg/kg, IV 1 mg/kg, 0.5 h, mean of 3 rats (BLQ = 0), read-out: Plasma concentration, mean) was 78.1 ng/mL and the concentration at 2 h ([3]; male, Sprague Dawley, rat, plasma, iv, 1 mg/kg, IV 1 mg/kg, 2 h, individual rats IV1-IV3, read-out: Plasma concentration) was 7.7 ng/mL. The concentration at 2 h ([3]; male, Sprague Dawley, rat, plasma, iv, 1 mg/kg, IV 1 mg/kg, 2 h, mean of 3 rats (BLQ = 0), read-out: Plasma concentration, mean) was 2.6 ng/mL, the concentration at 6 h ([3]; male, Sprague Dawley, rat, plasma, iv, 1 mg/kg, IV 1 mg/kg, 6 h, mean of 3 rats (BLQ = 0), read-out: Plasma concentration, mean) was 0 ng/mL and the concentration at 24 h ([3]; male, Sprague Dawley, rat, plasma, iv, 1 mg/kg, IV 1 mg/kg, 24 h, mean of 3 rats (BLQ = 0)) was 0 ng/mL. For the same compound, the concentration at 0.5 h ([3]; male, Sprague Dawley, rat, plasma, po, 10 mg/kg, PO 10 mg/kg, 0.5 h, individual rats PO4-PO6, read-out: Plasma concentration) was 6.7 ng/mL, the concentration at 0.5 h ([3]; male, Sprague Dawley, rat, plasma, po, 10 mg/kg, PO 10 mg/kg, 0.5 h, mean of 3 rats (BLQ = 0), read-out: Plasma concentration, mean) was 7.1 ng/mL and the concentration at 1 h ([3]; male, Sprague Dawley, rat, plasma, po, 10 mg/kg, PO 10 mg/kg, 1 h, individual rats PO4-PO6, read-out: Plasma concentration) was 5.5 ng/mL. The concentration at 1 h ([3]; male, Sprague Dawley, rat, plasma, po, 10 mg/kg, PO 10 mg/kg, 1 h, mean of 3 rats (BLQ = 0), read-out: Plasma concentration, mean) was 4 ng/mL, the concentration at 2 h ([3]; male, Sprague Dawley, rat, plasma, po, 10 mg/kg, PO 10 mg/kg, 2 h, individual rats PO4-PO6, read-out: Plasma concentration) was 6 ng/mL and the concentration at 2 h ([3]; male, Sprague Dawley, rat, plasma, po, 10 mg/kg, PO 10 mg/kg, 2 h, mean of 3 rats (BLQ = 0), read-out: Plasma concentration, mean) was 3.7 ng/mL. It also gave a concentration at 6 h ([3]; male, Sprague Dawley, rat, plasma, po, 10 mg/kg, PO 10 mg/kg, 6 h, mean of 3 rats (BLQ = 0), read-out: Plasma concentration, mean) of 0 ng/mL, a concentration at 24 h ([3]; male, Sprague Dawley, rat, plasma, po, 10 mg/kg, PO 10 mg/kg, 24 h, mean of 3 rats (BLQ = 0)) of 0 ng/mL and an AUC(0-inf) [3, 6] of 267 ng·h/mL. For the same compound, the AUC(0-t) [3, 6] was 266 ng·h/mL, the Cmax [3, 6] was 651 ng/mL and the Tmax [3, 6] was 4.8 min. For the same compound, the bioavailability ([3]; male, Sprague Dawley, rat, plasma, PO 10 mg/kg vs IV 1 mg/kg, calculated based on AUCt, read-out: F (bioavailability)) was 0.3%, the AUC(0-t) [3, 7] was 8 ng·h/mL and the Cmax [3, 7] was 7.07 ng/mL. It also gave a Tmax [3, 7] of 30 min, an AUC(0-inf) ([3]; male, Sprague Dawley, rat, plasma, PO 10 mg/kg, % AUC extra >20%: value given for indication) of 18.2 ng·h/mL and an MIC (LF82) of 0.024 µM.

Source: patent US10543223B2, “Mannose derivatives useful for treating pathologies associated with adherent E. coli” (ENTEROME, priority 2015, dated 2020)
